{"source": "patent US4219668A", "about": "“4-Hydroxy,4-biphenylbutyric acid” (American Cyanamid Company, priority 1979, dated 1980)", "key": {"[1]": {"test_system": "platelet aggregation (collagen-induced, platelet rich plasma)", "assay": "Inhibition of collagen-induced platelet aggregation ex vivo after oral administration to male rats", "type": "in vivo", "conditions": "rats bled after one to 2 hours, collagen 500 mcg./ml.", "procedure": "The compounds were administered orally to male rats in various concentrations. After one to 2 hours the rats were bled and platelet rich plasma obtained. Collagen was added at a concentration of 500 mcg./ml. to induce platelet aggregation and comparisons were made between control and treated samples. The percent inhibition of aggregation produced by the test compound was recorded."}, "[2]": {"test_system": "respiratory depression associated with platelet aggregation and thrombosis induced by arachidonic acid", "assay": "Inhibition of arachidonic acid-induced respiratory depression in mice", "type": "in vivo", "conditions": "arachidonic acid 50 mg./kg. i.v. two hours later", "procedure": "In a second test the in vivo activity is determined in mice. […] Mice were treated orally by gastric lavage with the test compounds in a starch suspension at various dosage levels. Two hours later a challenge dose of arachidonic acid was given to the mice intravenously at a concentration of 50 mg./kg. The period of respiratory distress for each animal was recorded in seconds by observation. The results of a typical compound of this invention appear in Table II in terms of percent inhibition in comparison with controls."}, "[3]": {"test_system": "carrageenin-induced edema", "assay": "Acute anti-inflammatory activity, carrageenin-induced paw edema", "type": "in vivo, Royal Hart, Wistar strain rats", "conditions": "250 mg./kg. by gavage; 5 hours after drug, 4 hours after carrageenin; edema of control animals/edema of treated animals; >1.41 considered active", "procedure": "In determining the acute anti-inflammatory activity, Royal Hart, Wistar strain rats ranging in weight from 80 to 90 grams were used. The rats were fasted overnight prior to dosing but had free access to water. The compounds were administered in aqueous suspension, by gavage, in a column of 1.7 ml. per 50 g. of rat [corresponds to the hydration volume used by Winter, et al., Proc. Soc. Exp. Biol. and Med. 111, 544-547 (1962)].\nThe phlogistic agent used was carrageenin prepared as a sterile 1% suspension in 0.9% aqueous sodium chloride for routine testing. A volume of 0.05 ml. was injected through a 26 gauge needle into the plantar tissue of the right hind paw. Measurements were made 5 hours after drug administration (4 hours after carrageenin challenge).\nVolumes of both the normal and carrageenin inflamed feet were determined. The difference between the two measurements is considered to be the increased edema due to the carrageenin administration. Results are expressed as a C/T efficacy ratio (edema of control animals/edema of treated animals) and a C/T ratio of greater than 1.41 is considered active."}, "[4]": {"test_system": "adjuvant induced arthritis (Freund's adjuvant)", "assay": "Chronic inflammation, adjuvant induced arthritis", "type": "in vivo, Royal Hart, Wistar strain rats", "conditions": "50 mg./kg. oral once daily, days 0 through 13", "procedure": "In a second test the activity against chronic inflammation in adjuvant induced arthritis was determined. Groups of 3 Royal Hart, Wistar strain rats, weighing 200±10 g. each were injected intradermally in the right hind paw with Freund's adjuvant (dried human tubercle bacilli in a mineral oil vehicle) at a dose of 2 mg./kg. of body weight. Test compounds were administered orally in a 1.5% starch vehicle at 50 mg./kg. of body weight once daily on days 0 through 13 post challenge. Control rats were treated in a similar manner, but given only starch vehicle. On the 14th day post challenge the diameter of the injected paw (primary lesion) was measured by micrometer caliper. The volume of inflamed paws was estimated from these measurements and the results are expressed as percent inhibition of swelling as compared to controls. At the same time, the other inflamed sites, such as ears, paws and tail (secondary lesions) were observed and each rat was graded as to the degree of inflammation and swelling present. The grading is based on a scale of 0 to 24, where 0 represents a complete absence of induced arthritic nodules and 24 represents the maximum degree of inflammation. The mean grade for each treated group is calculated and the effects of each compound are expressed as percent inhibition of the control grade. Table IV records the results of this test on a typical compound of this invention."}, "[5]": {"test_system": "ultraviolet induced erythema", "assay": "Ultraviolet induced erythema in guinea pigs", "type": "in vivo, Albino guinea pigs", "conditions": "maximum score 3.0", "procedure": "Another method of determining a drug effect on conditions which result in inflammation is by measuring the effect on ultraviolet induced erythema in guinea pigs. Albino guinea pigs were depilitated on their flanks, the evening before testing, with a standard mixture of barium sulfide and gum acacia. On the morning of the test, groups of 4 guinea pigs were dosed by gavage one hour prior (-1 hour) to ultraviolet exposure. At 0 hour they were restrained in a plastic container which allows exposure of 3 circular spots. They were then exposed to ultraviolet irradiation from a \"Hanovia\" Kromayer lamp, model 10, for 60 seconds. At one and four hours, the degree of erythema for each of the three sites was assessed according to the following scoring system: 0=no erythema, 0.5=incomplete circle or faint erythema and 1.0=[…] circle of distinct erythema. Thus, the maximum score for each animal was 3.0."}, "[6]": {"conditions": "British Pat. No. 1,390,091; cited from earlier work"}, "[7]": {"test_system": "aggregation of thromocytes", "conditions": "British Pat. No. 1,390,091; cited from earlier work"}, "[8]": {"conditions": "62.5 mg./kg. by gavage 1 hour prior to UV, 4 animals"}, "[9]": {"conditions": "125 mg./kg. by gavage 1 hour prior to UV, 4 animals"}, "[10]": {"conditions": "250 mg./kg. by gavage 1 hour prior to UV, 8 animals"}}, "data": [{"compound": "O=C(O)CCC(O)c1ccc(-c2ccccc2)cc1", "note": "(stereo not drawn) [γ-Hydroxy-4-biphenylbutyric acid]", "values": [{"measurement": "% Inhibition (platelet aggregation)", "setting": "[1]; 10 mg./kg. oral", "result": 25, "unit": "%"}, {"measurement": "% Inhibition (platelet aggregation)", "setting": "[1]; 25 mg./kg. oral", "result": 25, "unit": "%"}, {"measurement": "% Inhibition (platelet aggregation)", "setting": "[1]; 50 mg./kg. oral", "result": 19, "unit": "%"}, {"measurement": "% Inhibition (period of respiratory distress)", "setting": "[2]; 1 mg./kg. oral", "result": 46, "unit": "%"}, {"measurement": "% Inhibition (period of respiratory distress)", "setting": "[2]; 10 mg./kg. oral", "result": 51, "unit": "%"}, {"measurement": "% Inhibition (period of respiratory distress)", "setting": "[2]; 25 mg./kg. oral", "result": 66, "unit": "%"}, {"measurement": "% Inhibition (period of respiratory distress)", "setting": "[2]; 50 mg./kg. oral", "result": 63, "unit": "%"}, {"measurement": "C/T Edema Ratio", "setting": "[3]", "result": 2.0}, {"measurement": "% Inhibition of Swelling (primary lesion)", "setting": "[4]; 14th day post challenge, injected paw", "result": 51, "unit": "%"}, {"measurement": "% Inhibition of Control grade (secondary lesion)", "setting": "[4]; 14th day, grade scale 0 to 24", "result": 30, "unit": "%"}, {"measurement": "Score (avg.) 1 hour", "setting": "[5]; [8]", "result": 0}, {"measurement": "Score (avg.) 4 hour", "setting": "[5]; [8]", "result": 2.1}, {"measurement": "Score (avg.) 1 hour", "setting": "[5]; [9]", "result": 0.4}, {"measurement": "Score (avg.) 4 hour", "setting": "[5]; [9]", "result": 2.9}, {"measurement": "Score (avg.) 1 hour", "setting": "[5]; [10]", "result": 0}, {"measurement": "Score (avg.) 4 hour", "setting": "[5]; [10]", "result": 2.0}]}, {"compound": "O=C1CCC(c2ccc(-c3ccccc3)cc2)O1", "note": "(stereo not drawn) [5-(4-biphenylyl)-2-hydro-2-(3H)-furanone]", "values": [{"measurement": "activity as indicated (antiphlogistic)", "setting": "[6]", "result": "antiphlogistic"}, {"measurement": "activity as indicated (aggregation of thromocytes)", "setting": "[7]", "result": "inhibitory"}]}]}
